# {TEG-Chol} = cholesterol attached via TEG linker; l = locked nucleic acid (LNA); {Toco} = tocopherol conjugate; d = 2'-deoxy (DNA)
# Tested on: Hic-5
# Assay: Condition 8: Hic-5 expression by RT-PCR, human HSCs, ASO 5 µM without transfection reagent, 72 hours
# Format: cell-based
# Conditions: ratio, mean±SEM
row,Substance,Expression Inhibition Rate (4) Condition 8 (n=2)
1,"H26_cho: modified at the 5' end of H26 with TEG-cholesterol; GCTCGTGGAAACCCTC; LNA 1-3,14-16; SEQ ID NO 458 (sugars from the 5' end l3 d10 l3, 5' {TEG-Chol}, backbone and methylation of C not given here)",0.161±0.110
2,"H26_toco: modified at the 5' end of H26 with tocopherol; GCTCGTGGAAACCCTC; LNA 1-3,14-16; SEQ ID NO 459 (sugars from the 5' end l3 d10 l3, 5' {Toco}, backbone and methylation of C not given here)",0.738±0.010

# Source: EP4733400A1, “ANTISENSE OLIGONUCLEOTIDE TARGETING HIC-5” (SHOWA Medical University, priority 2023, dated 2025)
